Inhibition in vivo data for 37 compounds are collected here from ChEMBL document CHEMBL5352433, “Design, synthesis, and biological evaluation of low-toxic lappaconitine derivatives as potential analgesics” (Eur J Med Chem, 2022).

The assay concerns Mus musculus. Kind of assay: Analgesic activity against acetic acid-induced Kunming writhing mouse model assessed as inhibition of writhing at 10 mg/kg, sc pretreated with compound for 15 mins followed by acetic acid addition and measured after 15 mins relative to control. It is filed as functional. The conditions noted are these: 0.5 h, time 30 min. A general note: In writhing tests, fewer writhes than in controls are read as antinociception.

SMILES strings stand for the structures.

As a reminder, the inhibition in vivo is the change of the read-out against control, counted positive when it falls. On to `CCN1C[C@]2(OC(=O)c3ccccc3NS(=O)(=O)c3ccccc3[N+](=O)[O-])CC[C@H](OC)[C@]34C1[C@H](C[C@H]23)[C@@]1(O)C[C@H](OC)[C@H]2C[C@@H]4[C@]1(O)[C@H]2OC`, for which the inhibition in vivo at 10 mg/kg turned out to be 58.5%.
In the case of `CCN1C[C@]2(OC(=O)c3ccccc3NS(=O)(=O)c3cccs3)CC[C@H](OC)[C@]34C1[C@H](C[C@H]23)[C@@]1(O)C[C@H](OC)[C@H]2C[C@@H]4[C@]1(O)[C@H]2OC` it was 1%.
For the compound `CCN1C[C@]2(OC(=O)c3ccccc3NS(=O)(=O)c3cccc(C(F)(F)F)c3)CC[C@H](OC)[C@]34C1[C@H](C[C@H]23)[C@@]1(O)C[C@H](OC)[C@H]2C[C@@H]4[C@]1(O)[C@H]2OC`, the inhibition in vivo at 10 mg/kg worked out at 12.8%.
`CCN1C[C@]2(OC(=O)c3ccccc3NS(=O)(=O)c3cccc(C)c3)CC[C@H](OC)[C@]34C1[C@H](C[C@H]23)[C@@]1(O)C[C@H](OC)[C@H]2C[C@@H]4[C@]1(O)[C@H]2OC`: the inhibition in vivo at 10 mg/kg worked out at 52.1%.
On to `CCN1C[C@]2(OC(=O)c3ccccc3NS(=O)(=O)c3ccc(Cl)cc3)CC[C@H](OC)[C@]34C1[C@H](C[C@H]23)[C@@]1(O)C[C@H](OC)[C@H]2C[C@@H]4[C@]1(O)[C@H]2OC`, for which the inhibition in vivo at 10 mg/kg came out at 11.7%.
In the case of `CCN1C[C@]2(OC(=O)c3ccccc3NS(=O)(=O)c3cc(F)c(F)cc3F)CC[C@H](OC)[C@]34C1[C@H](C[C@H]23)[C@@]1(O)C[C@H](OC)[C@H]2C[C@@H]4[C@]1(O)[C@H]2OC`, the inhibition in vivo at 10 mg/kg worked out at 26%.
Turning to `CCN1C[C@]2(OC(=O)c3ccccc3NS(=O)(=O)c3ccc(Br)cc3)CC[C@H](OC)[C@]34C1[C@H](C[C@H]23)[C@@]1(O)C[C@H](OC)[C@H]2C[C@@H]4[C@]1(O)[C@H]2OC`, the inhibition in vivo at 10 mg/kg was 11.4%.
In the case of `CCN1C[C@]2(OC(=O)c3ccccc3NS(=O)(=O)Cc3ccc([N+](=O)[O-])cc3)CC[C@H](OC)[C@]34C1[C@H](C[C@H]23)[C@@]1(O)C[C@H](OC)[C@H]2C[C@@H]4[C@]1(O)[C@H]2OC` it was 42.4%; in that of `CCN1C[C@]2(OC(=O)c3ccccc3NS(=O)(=O)c3cccc([N+](=O)[O-])c3)CC[C@H](OC)[C@]34C1[C@H](C[C@H]23)[C@@]1(O)C[C@H](OC)[C@H]2C[C@@H]4[C@]1(O)[C@H]2OC`, 6.7%.
For `CCN1C[C@]2(OC(=O)c3ccccc3NS(=O)(=O)c3ccc(Cl)s3)CC[C@H](OC)[C@]34C1[C@H](C[C@H]23)[C@@]1(O)C[C@H](OC)[C@H]2C[C@@H]4[C@]1(O)[C@H]2OC` the value was 31.3%; for `CCN1C[C@]2(OC(=O)c3ccccc3NS(=O)(=O)c3cc(OC)ccc3OC)CC[C@H](OC)[C@]34C1[C@H](C[C@H]23)[C@@]1(O)C[C@H](OC)[C@H]2C[C@@H]4[C@]1(O)[C@H]2OC`, 65.8%.
As to `CCN1C[C@]2(OC(=O)c3ccccc3NS(=O)(=O)c3c(C)cc(C)cc3C)CC[C@H](OC)[C@]34C1[C@H](C[C@H]23)[C@@]1(O)C[C@H](OC)[C@H]2C[C@@H]4[C@]1(O)[C@H]2OC`, the inhibition in vivo at 10 mg/kg was found to be 52.1%.
On to `CCN1C[C@]2(OC(=O)c3ccccc3NS(=O)(=O)c3ccccc3Br)CC[C@H](OC)[C@]34C1[C@H](C[C@H]23)[C@@]1(O)C[C@H](OC)[C@H]2C[C@@H]4[C@]1(O)[C@H]2OC`, for which the inhibition in vivo at 10 mg/kg turned out to be 24.7%.
As for `CCN1C[C@]2(OC(=O)c3ccccc3NS(=O)(=O)c3ccccc3Cl)CC[C@H](OC)[C@]34C1[C@H](C[C@H]23)[C@@]1(O)C[C@H](OC)[C@H]2C[C@@H]4[C@]1(O)[C@H]2OC`, the inhibition in vivo at 10 mg/kg is 64.3%.
In the case of `CCN1C[C@]2(OC(=O)c3ccccc3NS(=O)(=O)c3cccc(F)c3)CC[C@H](OC)[C@]34C1[C@H](C[C@H]23)[C@@]1(O)C[C@H](OC)[C@H]2C[C@@H]4[C@]1(O)[C@H]2OC` it was 50.2%.
For `CCN1C[C@]2(OC(=O)c3ccccc3NS(=O)(=O)c3ccc(OC)cc3OC)CC[C@H](OC)[C@]34C1[C@H](C[C@H]23)[C@@]1(O)C[C@H](OC)[C@H]2C[C@@H]4[C@]1(O)[C@H]2OC`, the inhibition in vivo at 10 mg/kg is 34.9%.
For `CCN1C[C@]2(OC(=O)c3ccccc3NS(=O)(=O)c3ccc(F)cc3F)CC[C@H](OC)[C@]34C1[C@H](C[C@H]23)[C@@]1(O)C[C@H](OC)[C@H]2C[C@@H]4[C@]1(O)[C@H]2OC`, the inhibition in vivo at 10 mg/kg was determined as 27.2%.
For the compound `CCN1C[C@]2(OC(=O)c3ccccc3NS(=O)(=O)c3cccc(Br)c3)CC[C@H](OC)[C@]34C1[C@H](C[C@H]23)[C@@]1(O)C[C@H](OC)[C@H]2C[C@@H]4[C@]1(O)[C@H]2OC`, the inhibition in vivo at 10 mg/kg was determined as 13%.
On to `CCN1C[C@]2(OC(=O)c3ccccc3NS(=O)(=O)c3cc(Cl)ccc3OC)CC[C@H](OC)[C@]34C1[C@H](C[C@H]23)[C@@]1(O)C[C@H](OC)[C@H]2C[C@@H]4[C@]1(O)[C@H]2OC`, for which the inhibition in vivo at 10 mg/kg amounted to 43.2%.
Consider `CCN1C[C@]2(OC(=O)c3ccccc3NS(=O)(=O)c3ccc(OC)cc3)CC[C@H](OC)[C@]34C1[C@H](C[C@H]23)[C@@]1(O)C[C@H](OC)[C@H]2C[C@@H]4[C@]1(O)[C@H]2OC`, for which the inhibition in vivo at 10 mg/kg is 16.8%.
Turning to `CCN1C[C@]2(OC(=O)c3ccccc3NS(=O)(=O)c3ccc(OC)c(OC)c3)CC[C@H](OC)[C@]34C1[C@H](C[C@H]23)[C@@]1(O)C[C@H](OC)[C@H]2C[C@@H]4[C@]1(O)[C@H]2OC`, the inhibition in vivo at 10 mg/kg came to 13.7%.
`CCN1C[C@]2(OC(=O)c3ccccc3NS(=O)(=O)c3ccccc3F)CC[C@H](OC)[C@]34C1[C@H](C[C@H]23)[C@@]1(O)C[C@H](OC)[C@H]2C[C@@H]4[C@]1(O)[C@H]2OC`: the inhibition in vivo at 10 mg/kg stood at 60.3%.
For the compound `CCN1C[C@]2(OC(=O)c3ccccc3NS(=O)(=O)c3ccc(N(C)C)cc3)CC[C@H](OC)[C@]34C1[C@H](C[C@H]23)[C@@]1(O)C[C@H](OC)[C@H]2C[C@@H]4[C@]1(O)[C@H]2OC`, the inhibition in vivo at 10 mg/kg came to 23%.
In the case of `CCN1C[C@]2(OC(=O)c3ccccc3NS(=O)(=O)c3ccc(C)cc3)CC[C@H](OC)[C@]34C1[C@H](C[C@H]23)[C@@]1(O)C[C@H](OC)[C@H]2C[C@@H]4[C@]1(O)[C@H]2OC` it was 27.7%; in that of `CCN1C[C@]2(OC(=O)c3ccccc3NS(=O)(=O)c3ccccc3C#N)CC[C@H](OC)[C@]34C1[C@H](C[C@H]23)[C@@]1(O)C[C@H](OC)[C@H]2C[C@@H]4[C@]1(O)[C@H]2OC`, 53.9%; in that of `CCN1C[C@]2(OC(=O)c3ccccc3NS(=O)(=O)c3cccc(C#N)c3)CC[C@H](OC)[C@]34C1[C@H](C[C@H]23)[C@@]1(O)C[C@H](OC)[C@H]2C[C@@H]4[C@]1(O)[C@H]2OC`, 47.4%.
Regarding `CCN1C[C@]2(OC(=O)c3ccccc3NS(=O)(=O)c3ccc(F)cc3)CC[C@H](OC)[C@]34C1[C@H](C[C@H]23)[C@@]1(O)C[C@H](OC)[C@H]2C[C@@H]4[C@]1(O)[C@H]2OC`, the inhibition in vivo at 10 mg/kg was 14.7%.
For `CCN1C[C@]2(OC(=O)c3ccccc3NS(=O)(=O)c3ccc(C(F)(F)F)cc3)CC[C@H](OC)[C@]34C1[C@H](C[C@H]23)[C@@]1(O)C[C@H](OC)[C@H]2C[C@@H]4[C@]1(O)[C@H]2OC` the value was 19.4%; for `CCN1C[C@]2(OC(=O)c3ccccc3NS(=O)(=O)c3ccc(C#N)cc3)CC[C@H](OC)[C@]34C1[C@H](C[C@H]23)[C@@]1(O)C[C@H](OC)[C@H]2C[C@@H]4[C@]1(O)[C@H]2OC`, 21.4%; for `CCN1C[C@]2(OC(=O)c3ccccc3NS(=O)(=O)Cc3ccccc3)CC[C@H](OC)[C@]34C1[C@H](C[C@H]23)[C@@]1(O)C[C@H](OC)[C@H]2C[C@@H]4[C@]1(O)[C@H]2OC`, 43.8%.
For `CCN1C[C@]2(OC(=O)c3ccccc3NS(=O)(=O)c3ccc(-c4ccccc4)cc3)CC[C@H](OC)[C@]34C1[C@H](C[C@H]23)[C@@]1(O)C[C@H](OC)[C@H]2C[C@@H]4[C@]1(O)[C@H]2OC` the value was 16.1%.
For `CCN1C[C@]2(OC(=O)c3ccccc3NS(=O)(=O)c3ccccc3C(F)(F)F)CC[C@H](OC)[C@]34C1[C@H](C[C@H]23)[C@@]1(O)C[C@H](OC)[C@H]2C[C@@H]4[C@]1(O)[C@H]2OC` the value was 55.2%; for `CCN1C[C@]2(OC(=O)c3ccccc3NS(=O)(=O)c3cccc(OC)c3)CC[C@H](OC)[C@]34C1[C@H](C[C@H]23)[C@@]1(O)C[C@H](OC)[C@H]2C[C@@H]4[C@]1(O)[C@H]2OC`, 37.1%.
Consider `CCN1C[C@]2(OC(=O)c3ccccc3NS(=O)(=O)c3cc(F)cc(F)c3)CC[C@H](OC)[C@]34C1[C@H](C[C@H]23)[C@@]1(O)C[C@H](OC)[C@H]2C[C@@H]4[C@]1(O)[C@H]2OC`, for which the inhibition in vivo at 10 mg/kg was 37.5%.
Consider `CCN1C[C@]2(OC(=O)c3ccccc3NS(=O)(=O)c3cccc(Cl)c3)CC[C@H](OC)[C@]34C1[C@H](C[C@H]23)[C@@]1(O)C[C@H](OC)[C@H]2C[C@@H]4[C@]1(O)[C@H]2OC`, for which the inhibition in vivo at 10 mg/kg stood at 33.1%.
Consider `CCN1C[C@]2(OC(=O)c3ccccc3NS(=O)(=O)c3ccc(F)c(F)c3)CC[C@H](OC)[C@]34C1[C@H](C[C@H]23)[C@@]1(O)C[C@H](OC)[C@H]2C[C@@H]4[C@]1(O)[C@H]2OC`, for which the inhibition in vivo at 10 mg/kg is 28.3%.
For the compound `CCN1C[C@]2(OC(=O)c3ccccc3NS(=O)(=O)c3cc(F)ccc3F)CC[C@H](OC)[C@]34C1[C@H](C[C@H]23)[C@@]1(O)C[C@H](OC)[C@H]2C[C@@H]4[C@]1(O)[C@H]2OC`, the inhibition in vivo at 10 mg/kg came to 45.1%.
